The structures appear in SMILES notation.

In this assay the target is T1, purified recombinantly expressed human SSAO (Homo sapiens, UniProt Q16853).
T1 construct: made in house
T1 sequence (Q16853 29-763 limits assumed): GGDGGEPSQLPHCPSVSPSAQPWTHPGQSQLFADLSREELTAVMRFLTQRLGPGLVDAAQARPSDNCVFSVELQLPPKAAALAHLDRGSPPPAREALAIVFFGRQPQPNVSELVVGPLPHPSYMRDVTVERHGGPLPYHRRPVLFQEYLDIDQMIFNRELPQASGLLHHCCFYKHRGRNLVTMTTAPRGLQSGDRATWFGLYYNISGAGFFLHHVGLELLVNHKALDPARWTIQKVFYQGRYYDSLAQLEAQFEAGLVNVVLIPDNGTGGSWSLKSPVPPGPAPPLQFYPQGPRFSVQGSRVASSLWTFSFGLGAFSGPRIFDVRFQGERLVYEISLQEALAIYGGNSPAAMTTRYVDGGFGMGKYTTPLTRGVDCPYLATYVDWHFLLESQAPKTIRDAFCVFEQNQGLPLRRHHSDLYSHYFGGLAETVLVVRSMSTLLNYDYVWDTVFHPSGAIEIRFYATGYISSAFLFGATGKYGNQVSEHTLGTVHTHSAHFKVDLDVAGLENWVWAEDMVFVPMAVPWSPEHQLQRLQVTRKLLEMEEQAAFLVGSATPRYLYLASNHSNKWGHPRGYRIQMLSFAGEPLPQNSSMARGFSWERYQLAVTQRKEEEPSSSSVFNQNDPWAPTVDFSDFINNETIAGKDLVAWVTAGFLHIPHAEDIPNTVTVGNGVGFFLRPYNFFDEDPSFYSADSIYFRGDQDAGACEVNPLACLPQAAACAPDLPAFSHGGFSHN
As to the kind of experiment: SSAO enzyme inhibition assay (benzylamine substrate; hydrogen peroxide/HRP-coupled or 14C-benzaldehyde detection). It counts as biochemical. Particulars: human recombinant SSAO, benzylamine as substrate, rt. How it is done:
All primary assays were performed in rt with purified recombinantly expressed human SSAO. Enzyme was prepared essentially as described in Öhman et al. (Protein Expression and Purification 46 (2006) 321-331). In addition, secondary- and selectivity assays were performed using SSAO prepared from various tissues or purified rat recombinant SSAO. The enzyme activity was assayed with benzylamine as substrate by measuring either benzaldehyde production, using ^14C-labeled substrate, or by utilizing the production of hydrogen peroxide in a horseradish peroxidise (HRP) coupled reaction. Briefly, test compounds were dissolved in dimethyl sulfoxide (DMSO) to a concentration of 10 mM. Dose-response measurements were assayed by either creating 1:10 serial dilutions in DMSO to produce a 7 point curve or by making 1:3 serial dilutions in DMSO to produce 11 point curves. The top concentrations were adjusted depending on the potency of the compounds and subsequent dilution in reaction buffer yielded a final DMSO concentration≦2%.
In a horseradish peroxidise (HRP) coupled reaction, hydrogen peroxide oxidation of 10-acetyl-3,7-dihydroxyphenoxazine produced resorufin, which is a highly fluorescent compound (Zhout and Panchuk-Voloshina. Analytical Biochemistry 253 (1997) 169-174; Amplex® Red Hydrogen Peroxide/peroxidise Assay kit, Invitrogen A22188). Enzyme and compounds in 50 mM sodium phosphate, pH 7.4 were set to pre-incubate in flat-bottomed microtiter plates for approximately 15 minutes before initiating the reaction by addition of a mixture of HRP, benzylamine and Amplex reagent. Benzylamine concentration was fixed at a concentration corresponding to the Michaelis constant, determined using standard procedures. Fluorescence intensity was then measured at several time points during 1-2 hours, exciting at 544 nm and reading the emission at 590 nm. For the human SSAO assay final concentrations of the reagents in the assay wells were: SSAO enzyme […], benzylamine 100 μM, Amplex reagent 20 μM, HRP 0.1 U/mL and varying concentrations of test compound. The inhibition was measured as % decrease of the signal compared to a control without inhibitor (only diluted DMSO). The background signal from a sample containing no SSAO enzyme was subtracted from all data points. Data was fitted to a four parameter logistic model and IC50 values were calculated using the GraphPad Prism 4 or XLfit 4 programs.
SSAO activity was assayed using 14C-labeled benzylamine and analysed by measuring radioactive benzaldehyde. […] Phase separation occurred instantly and activity was read in a Topcount scintillation counter (Perkin-Elmer). […] Data was analysed as above.

As usually defined, the IC50 is the concentration that gives 50% inhibition. Take `OCc1c(-c2ccc(Br)cc2)nc2ccc(C(F)(F)F)cn12` [Example 23, [2-(4-Bromophenyl)-6-(trifluoromethyl)imidazo[1,2-a]pyridin-3-yl]methanol]: the IC50 turned out to be 88 nM.
In the case of `O=C(c1ccc2nc(-c3ccc(Cl)cc3)c(CO)n2c1)N1CCC(CO)CC1` [Example 62, (1-{[2-(4-Chlorophenyl)-3-(hydroxymethyl)imidazo[1,2-a]pyridin-6-yl]carbonyl}piperidin-4-yl)methanol] it was 155 nM; in that of `COc1cccc(-c2nc3cnc(Br)cn3c2CO)c1` [Example 81, [6-Bromo-2-(3-methoxyphenyl)imidazo[1,2-a]pyrazin-3-yl]methanol], 248 nM.
For `CC(O)c1cn2c(CO)c(-c3ccc(Cl)cc3)nc2s1` (stereo not shown) [Example 106, 1-[6-(4-Chlorophenyl)-5-(hydroxymethyl)imidazo[2,1-b][1,3]thiazol-2-yl]ethanol], the IC50 turned out to be 89 nM.

Values taken from patent publication US20150239905A1, “IMIDAZOPYRIDINE COMPOUNDS” (Proximagen Limited, priority 2008, published 2015).
